{"source": "ChEMBL document CHEMBL3272271", "about": "“Folate antagonists. 13. 2,4-Diamino-6-](alpha,alpha,alpha-trifluoro-m-tolyl)thio]quinazoline and related 2,4-diamino-6-[(phenyl- and naphthyl)thio]quinazolines, a unique class of antimetabolites with extraordinary antimalarial and antibacterial effects” (J Med Chem, 1978)", "key": {"[1]": {"test_system": "Plasmodium berghei", "experiment": "Antimalarial activity against trophozoite-induced Plasmodium berghei infected in mouse assessed as daily dose required to suppression of 90% parasite infection administered with diet for 6 days", "assay_type": "functional"}, "[2]": {"test_system": "Gallus gallus", "experiment": "Toxicity in sporozoite-induced Plasmodium gallinaceum infected white leghorn chicken assessed as mortality at 240 mg/kg, sc administered 72 hrs after infection measured up to 6 days", "assay_type": "organism-based", "design": "dose 240 mg/kg, route subcutaneous", "settings": "in vivo"}, "[3]": {"test_system": "Gallus gallus", "experiment": "Toxicity in sporozoite-induced Plasmodium gallinaceum infected white leghorn chicken assessed as mortality at 480 mg/kg, sc administered 72 hrs after infection measured up to 6 days", "assay_type": "organism-based", "design": "dose 480 mg/kg, route subcutaneous", "settings": "in vivo"}, "[4]": {"test_system": "Plasmodium gallinaceum", "experiment": "Antimalarial activity against trophozoite-induced Plasmodium gallinaceum infected in white leghorn chicken assessed as disease cure from parasite infection at 120 mg/kg, sc administered 72 hrs after infection", "assay_type": "functional, organism-based", "design": "dose 120 mg/kg"}, "[5]": {"test_system": "Plasmodium berghei", "experiment": "Antimalarial activity against Plasmodium berghei infected in mouse assessed as disease cure from parasite infection at 160 mg/kg, sc administered 72 hrs after infection", "assay_type": "functional, organism-based", "design": "dose 160 mg/kg"}, "[6]": {"test_system": "Plasmodium berghei", "experiment": "Ratio of quinine hydrochloride SD90 to compound SD90 for trophozoite-induced Plasmodium berghei infected in mouse assessed as daily dose required to suppression of 90% parasite infection administered with diet for 6 days", "assay_type": "functional"}, "[7]": {"test_system": "Gallus gallus", "experiment": "Toxicity in sporozoite-induced Plasmodium gallinaceum infected white leghorn chicken assessed as mortality at 120 mg/kg, sc administered 72 hrs after infection measured up to 6 days", "assay_type": "organism-based", "design": "dose 120 mg/kg, route subcutaneous", "settings": "in vivo"}, "[8]": {"test_system": "Plasmodium gallinaceum", "experiment": "Antimalarial activity against sporozoite-induced Plasmodium gallinaceum infected in white leghorn chicken assessed as increase in mean survival days of host at 30 mg/kg, sc administered 72 hrs after infection relative to control", "assay_type": "functional", "settings": "route subcutaneous"}, "[9]": {"test_system": "Plasmodium berghei", "experiment": "Antimalarial activity against DDS-resistant Plasmodium berghei assessed as drug resistance relative to control", "assay_type": "functional"}, "[10]": {"test_system": "Plasmodium gallinaceum", "experiment": "Antimalarial activity against sporozoite-induced Plasmodium gallinaceum infected in white leghorn chicken assessed as increase in mean survival days of host at 60 mg/kg, sc administered 72 hrs after infection relative to control", "assay_type": "functional", "settings": "route subcutaneous"}, "[11]": {"test_system": "Plasmodium berghei", "experiment": "Antimalarial activity against Plasmodium berghei infected in mouse assessed as disease cure from parasite infection at 80 mg/kg, sc administered 72 hrs after infection", "assay_type": "functional, organism-based", "design": "dose 80 mg/kg"}, "[12]": {"test_system": "Plasmodium berghei", "experiment": "Antimalarial activity against Plasmodium berghei infected in mouse assessed as disease cure from parasite infection at 320 mg/kg, sc administered 72 hrs after infection", "assay_type": "functional, organism-based", "design": "dose 320 mg/kg"}, "[13]": {"test_system": "Mus musculus", "experiment": "Toxicity in Plasmodium berghei infected mouse assessed as mortality at 320 mg/kg, sc administered 72 hrs after infection measured after 2 to 5 days", "assay_type": "organism-based", "design": "dose 320 mg/kg, route subcutaneous", "settings": "in vivo"}, "[14]": {"test_system": "Gallus gallus", "experiment": "Toxicity in trophozoite-induced Plasmodium gallinaceum infected white leghorn chicken assessed as mortality at 120 mg/kg, sc administered 72 hrs after infection measured after 48 hrs", "assay_type": "organism-based", "design": "dose 120 mg/kg, route subcutaneous", "settings": "in vivo"}, "[15]": {"test_system": "Plasmodium berghei", "experiment": "Antimalarial activity against Plasmodium berghei infected in mouse assessed as increase in mean survival days of host at 20 mg/kg, sc administered 72 hrs after infection relative to control", "assay_type": "functional", "settings": "route subcutaneous"}, "[16]": {"test_system": "Plasmodium gallinaceum", "experiment": "Antimalarial activity against trophozoite-induced Plasmodium gallinaceum infected in white leghorn chicken assessed as increase in mean survival days of host at 60 mg/kg, sc administered 72 hrs after infection relative to control", "assay_type": "functional", "settings": "route subcutaneous"}, "[17]": {"test_system": "Mus musculus", "experiment": "Toxicity in Plasmodium berghei infected mouse assessed as mortality at 640 mg/kg, sc administered 72 hrs after infection measured after 2 to 5 days", "assay_type": "organism-based", "design": "dose 640 mg/kg, route subcutaneous", "settings": "in vivo"}, "[18]": {"test_system": "Plasmodium gallinaceum", "experiment": "Antimalarial activity against trophozoite-induced Plasmodium gallinaceum infected in white leghorn chicken assessed as disease cure from parasite infection at 60 mg/kg, sc administered 72 hrs after infection", "assay_type": "functional, organism-based", "design": "dose 60 mg/kg"}, "[19]": {"test_system": "Plasmodium gallinaceum", "experiment": "Antimalarial activity against sporozoite-induced Plasmodium gallinaceum infected in white leghorn chicken assessed as increase in mean survival days of host at 15 mg/kg, sc administered 72 hrs after infection relative to control", "assay_type": "functional", "settings": "route subcutaneous"}, "[20]": {"test_system": "Plasmodium gallinaceum", "experiment": "Antimalarial activity against trophozoite-induced Plasmodium gallinaceum infected in white leghorn chicken assessed as disease cure from parasite infection at 160 mg/kg, sc administered 72 hrs after infection", "assay_type": "functional, organism-based", "design": "dose 160 mg/kg"}, "[21]": {"test_system": "Plasmodium gallinaceum", "experiment": "Antimalarial activity against trophozoite-induced Plasmodium gallinaceum infected in white leghorn chicken assessed as increase in mean survival days of host at 30 mg/kg, sc administered 72 hrs after infection relative to control", "assay_type": "functional", "settings": "route subcutaneous"}, "[22]": {"test_system": "Plasmodium gallinaceum", "experiment": "Antimalarial activity against trophozoite-induced Plasmodium gallinaceum infected in white leghorn chicken assessed as disease cure from parasite infection at 30 mg/kg, sc administered 72 hrs after infection", "assay_type": "functional, organism-based", "design": "dose 30 mg/kg"}, "[23]": {"test_system": "Gallus gallus", "experiment": "Toxicity in sporozoite-induced Plasmodium gallinaceum infected white leghorn chicken assessed as mortality at 60 mg/kg, sc administered 72 hrs after infection measured up to 6 days", "assay_type": "organism-based", "design": "dose 60 mg/kg, route subcutaneous", "settings": "in vivo"}, "[24]": {"test_system": "Plasmodium berghei", "experiment": "Antimalarial activity against Plasmodium berghei infected in mouse assessed as increase in mean survival days of host at 10 mg/kg, sc administered 72 hrs after infection relative to control", "assay_type": "functional", "settings": "route subcutaneous"}, "[25]": {"test_system": "Plasmodium berghei", "experiment": "Antimalarial activity against Plasmodium berghei infected in mouse assessed as increase in mean survival days of host at 40 mg/kg, sc administered 72 hrs after infection relative to control", "assay_type": "functional", "settings": "route subcutaneous"}, "[26]": {"test_system": "Plasmodium berghei", "experiment": "Antimalarial activity against Plasmodium berghei infected in mouse assessed as increase in mean survival days of host at 80 mg/kg, sc administered 72 hrs after infection relative to control", "assay_type": "functional", "settings": "route subcutaneous"}, "[27]": {"test_system": "Plasmodium berghei", "experiment": "Antimalarial activity against Plasmodium berghei infected in mouse assessed as disease cure from parasite infection at 40 mg/kg, sc administered 72 hrs after infection", "assay_type": "functional, organism-based", "design": "dose 40 mg/kg"}}, "note": "Calls of active or inactive are those of the source. The calls are words filed in the database; no cut-off is given here.", "data": [{"compound": "CC1(C)N=C(N)N=C(N)N1c1ccc(Cl)cc1.Cl", "note": "[CHLORCYCLOGUANIL HYDROCHLORIDE]", "values": [{"measurement": "SD90", "setting": "[1]", "result": 2.1, "unit": "mg/kg/day"}, {"measurement": "Activity", "setting": "[2]", "result": "Toxic"}, {"measurement": "Activity", "setting": "[3]", "result": "Toxic"}, {"measurement": "Activity", "setting": "[4]", "result": "Active"}, {"measurement": "Activity", "setting": "[5]", "result": "Active"}, {"measurement": "Ratio", "setting": "[6]", "result": 35}, {"measurement": "Activity", "setting": "[7]", "result": "Toxic"}, {"measurement": "MST", "setting": "[8]", "result": 2.3, "unit": "days"}, {"measurement": "fold change (FC)", "setting": "[9]", "result": "<2"}, {"measurement": "MST", "setting": "[10]", "result": 0, "unit": "days"}, {"measurement": "Activity", "setting": "[11]", "result": "Active"}, {"measurement": "Activity", "setting": "[12]", "result": "Active"}, {"measurement": "Activity", "setting": "[13]", "result": "Toxic"}, {"measurement": "Activity", "setting": "[14]", "result": "Toxic"}, {"measurement": "MST", "setting": "[15]", "result": 7.9, "unit": "days"}, {"measurement": "MST", "setting": "[16]", "result": 15.1, "unit": "days"}, {"measurement": "Activity", "setting": "[17]", "result": "Toxic"}, {"measurement": "Activity", "setting": "[18]", "result": "Active"}, {"measurement": "MST", "setting": "[19]", "result": 0, "unit": "days"}, {"measurement": "Activity", "setting": "[20]", "result": "Active"}, {"measurement": "MST", "setting": "[21]", "result": 11.7, "unit": "days"}, {"measurement": "Activity", "setting": "[22]", "result": "Active"}, {"measurement": "Activity", "setting": "[23]", "result": "Toxic"}, {"measurement": "MST", "setting": "[24]", "result": 4.9, "unit": "days"}, {"measurement": "MST", "setting": "[25]", "result": 13.4, "unit": "days"}, {"measurement": "MST", "setting": "[26]", "result": 21.6, "unit": "days"}, {"measurement": "Activity", "setting": "[27]", "result": "Active"}]}]}
